The values that follow come from ChEMBL document CHEMBL6127076, “Scaffold hopping-driven optimization for the identification of NLRP3 inhibitors as potential gout therapeutics” (Eur J Med Chem, 2024).

Usually IC50 stands for the concentration at which inhibition is half-maximal. What is called solubility is how much of the substance goes into solution per volume. Higher therefore signals a readily soluble substance.

Values after ≈ are worked out from the molar mass of the structure shown.

The first data set in a line: Inhibition of NLRP3 inflammasome pathway in human THP-1 cells assessed as inhibition of LPS/MSU-induced IL-1beta secretion.
Take `COc1cccc(N2C(=O)C(C)(C)N(Cc3ccc(C)c(C)c3)C2=S)c1`: the concentration for half-maximal inhibition (IC50) is more than 20 µM.

`COc1ccc(N2C(=O)C(C)(C)N(Cc3ccc(C)cc3)C2=S)cc1`: the IC50 is more than 20 µM.

For `C=C1C(=O)[C@]23[C@H](O)[C@H]1CC[C@H]2[C@@]12CO[C@]3(O)[C@@H](O)[C@@H]1C(C)(C)CC[C@@H]2O` [ORIDONIN], the IC50 stood at 1.9 µM.

For `CC(C)(C)c1ccc(N2C(=O)C(C)(C)N(Cc3ccc4ncoc4c3)C2=S)cc1`, the IC50 is more than 20 µM.

Regarding `COc1ccccc1N1C(=O)C(C)(C)N(Cc2ccc(C)c(C)c2)C1=S`, the IC50 is more than 20 µM.

`COc1ccc(N2C(=O)C(C)(C)N(Cc3ccc(C(C)C)cc3)C2=S)cc1`: the IC50 amounted to 15.7 µM.

On to `CC1(C)C(=O)N(c2cccnc2)C(=S)N1Cc1ccc(S(N)(=O)=O)c(F)c1`, for which the IC50 is more than 20 µM.

Consider `COc1ccc(N2C(=O)C(C)(C)N(Cc3ccc(C(F)(F)F)cc3)C2=S)cc1`, for which the concentration for half-maximal inhibition (IC50) was 13 µM.

Regarding `Cc1ccc(CN2C(=S)N(c3cccc(OCc4ccccc4)c3)C(=O)C2(C)C)cc1C`, the IC50 was more than 20 µM.

In the case of `COc1ccc(N2C(=O)C(C)(C)N(C(=O)c3ccccc3C(F)(F)F)C2=S)cc1`, the half-maximal inhibitory concentration (IC50) was more than 50 µM.

Regarding `COc1ccc(N2C(=O)C(C)(C)N(Cc3ccccc3C(F)(F)F)C2=S)cc1`, the IC50 came to 29.2 µM.

For the compound `CC(C)(C)c1ccc(N2C(=O)C(C)(C)N(Cc3ccc(C#N)c(Cl)c3)C2=S)cc1`, the IC50 was more than 20 µM.

On to `COc1ccc(CN2C(=S)N(c3ccc(C(C)(C)C)cc3)C(=O)C2(C)C)cc1F`, for which the IC50 is 13.9 µM.

As to `CC(C)(C)c1ccc(N2C(=O)C(C)(C)N(Cc3ccc(C(=O)O)cc3)C2=S)cc1`, the IC50 was more than 20 µM.

As to `Cc1ccc(CN2C(=S)N(c3ccc(C#N)c(C(F)(F)F)c3)C(=O)C2(C)C)cc1C`, the IC50 is more than 20 µM.

`COc1ccc(N2C(=O)C(C)(C)N(Cc3ccc(-c4ccccc4C#N)cc3)C2=S)cc1`: the IC50 is more than 20 µM.

On to `COc1ccc(N2C(=O)C(C)(C)N(Cc3cccc(C(F)(F)F)c3)C2=S)cc1`, for which the IC50 is more than 20 µM.

Take `COc1ccc(N2C(=O)C(C)(C)N(Cc3cc(C(F)(F)F)ccc3C(F)(F)F)C2=S)cc1`: the IC50 was more than 20 µM.

Another data set can be described thus: Aqueous solubility of the compound in pH 7.4 PBS buffer. The data set is classed as physicochemical.
In turn, `CCCSc1ccc2nc(NC(=O)OC)[nH]c2c1` [ALBENDAZOLE] displayed a solubility of 1.65 µM (≈ 0.438 µg/mL).

As to `c1ccc(-c2nc[nH]c2-c2ccccc2)cc1`, the concentration in solution (solubility) was 13.6 µM (≈ 3 µg/mL). This solubility lies about 8.2-fold higher than the previous one.

In the case of `CC(C)NCC(O)COc1cccc2ccccc12` (stereo unspecified) [PROPRANOLOL], the concentration in solution (solubility) came to 91.2 µM (≈ 23.7 µg/mL).
